Measured values from publication PMC9652379, “Safety evaluations of a synthetic antimicrobial peptide administered intravenously in rats and dogs” (Scientific Reports, 2022).
Positions of bridges follow the written chain, without caps; N, C: chain ends. Non-standard residues stand in square brackets, D forms with d. Residues, ends and D or L forms follow the SMILES beside them. Chains are numbered I, II in the order given. βAla = NCCC(=O)O

Tests used:
male rats = test: Neurological toxicity in rats (Irwin test, body temperature, locomotor activity, body weight); type: in vivo
Procedure: The purpose of this study was to evaluate the neurological side-effects of SET-M33 following a single intravenous injection of 5, 9 and 15 mg/kg and vehicle (6 animals/group). The study was based on subjective observation of central nervous system effects on general behaviour (Irwin test), combined with objective evaluation of body temperature and locomotor activity in male rats[32],[33]. Effects on body weight were also assessed. Again the dose levels were selected on the basis of the DRF study reported above.
Evaluation of SET-M33 neurological toxicity was based on the method described by Irwin[32],[33]. On the day prior to dosing, detailed subjective observation of all animals was made to assess the neurobehavioral and physiological state of untreated rats. After subjective observation, rectal temperature was measured and spontaneous locomotor activity was assessed. On the day of dosing, the animals were treated and then returned to their home cages. […] During these observations, the following parameters were systematically evaluated for each animal using a standard procedure: lethality, restlessness, apathy, writhing, fighting, stereotyped behaviour, tremor, twitches, convulsions, exophthalmos, abnormal respiration, alertness, startle response, loss of righting reflex, abnormal body carriage, abnormal gait, Straub tail, piloerection, pupil diameter, light-pupil response, touch response, fearfulness, pinna reflex, corneal reflex, catalepsy, passivity, aggressiveness, body tone, grip strength, cutaneous blood flow, cyanosis, ptosis, lacrimation, salivation, pain response, motility impairment, grooming, diarrhoea, vocalization, increased urination. Normal attributes of animals (e.g. alertness, body tone etc.) were subjectively scored as 4; enhancement or depression of these attributes by SET-M33 was scored with higher or lower integers, respectively. Attributes normally absent in animals (e.g. abnormal gait, abnormal respiration, tremors etc.) were subjectively scored from 0 (normal) to 8. […] Finally, spontaneous locomotor activity was analysed. […]

beagle dogs = test: Dose range finding in dogs: clinical signs, body weight, survival; type: in vivo, dog
Procedure: The purpose of this study was to conduct DRF for SET-M33 administered by short intravenous infusion (30 min) to beagle dogs at 4.0 and 8.0 mg/kg/day (7-day treatment period). Two animals served as control group (one male, one female), and four animals were assigned to treated groups (two males, two females). The doses were determined by a preliminary study not reported here.
Naïve beagle dogs were used for the toxicity studies. The animals were supplied by Marshall US. They were 9–10 months old at the start of treatment with a body-weight range of 9.1–10 kg for the DRF study. They were 6–7 months old at the start of treatment with a body-weight range of 6.6–8.6 kg for males and 5.1–6.5 kg for females for the 4-week toxicity study. The method of administration was an intravenous short infusion with an infusion pump, alternately either into the cephalic or saphenous veins using sterile disposable cannulas and syringes. The volume of the dose of SET-M33 and control in two studies was 2, 5 and 5 mL/Kg body weight, respectively.
Viability/mortality were recorded at least twice daily. […] Injection sites were examined daily during dosing. For clinical investigation, blood obtained via jugular venepuncture from anaesthetized dogs was used to analyse blood, coagulation and biochemical parameters.

mouse = details: cited from earlier work
Sprague Dawley rats = test: Dose range finding in rats: clinical signs, body weight, survival; type: in vivo, rat
Procedure: The purpose of this study was to determine the DRF of SET-M33 peptide when administered by intravenous bolus to Sprague Dawley rats. In order to identify a starting point for DRF, in Phase I of this study the peptide was administered once daily for 3 days at a constant dose of 20 mg/kg/day to six animals (three males and three females). […] No clinical signs were recorded in any animal 20–60 min after administration. Body weight of all animals in Phase I remained constant or decreased slightly during treatment.
Phase II, where 10 animals/group (five males and five females) were used, included a control group and two dose groups (10 mg/kg/day and 20 mg/kg/day), that were injected once daily for seven days. […] At 20 mg/kg/day, additional clinical signs, including decreased activity, irregular and/or slow breathing, piloerection, partially closed eyelids, abnormal uncoordinated gait, reduced body tone and hunched posture, were observed during the 7 days. The mean body weight of males treated with 10 and 20 mg/kg/day declined slightly (6% and 5% less than control group, respectively).
Sprague Dawley rats were used for the toxicity studies. The animals were supplied by Envigo RMS S.L. All animals were 6–8 weeks old at the start of treatment and were allocated randomly to the treatment groups. […]
A viability/mortality check was recorded at least twice daily. […]

## CC[C@H](C)[C@H](NC(=O)[C@H](CCCCN)NC(=O)[C@@H](N)CCCCN)C(=O)N[C@@H](CCCNC(=N)N)C(=O)N[C@H](C(=O)N[C@@H](CCCNC(=N)N)C(=O)N[C@@H](CC(C)C)C(=O)N[C@@H](CO)C(=O)N[C@@H](C)C(=O)NCCCC[C@H](NC(=O)[C@H](C)NC(=O)[C@H](CO)NC(=O)[C@H](CC(C)C)NC(=O)[C@H](CCCNC(=N)N)NC(=O)[C@@H](NC(=O)[C@H](CCCNC(=N)N)NC(=O)[C@@H](NC(=O)[C@H](CCCCN)NC(=O)[C@@H](N)CCCCN)[C@@H](C)CC)C(C)C)C(=O)NCCCC[C@H](NC(=O)[C@H](CCCCNC(=O)[C@H](C)NC(=O)[C@H](CO)NC(=O)[C@H](CC(C)C)NC(=O)[C@H](CCCNC(=N)N)NC(=O)[C@@H](NC(=O)[C@H](CCCNC(=N)N)NC(=O)[C@@H](NC(=O)[C@H](CCCCN)NC(=O)[C@@H](N)CCCCN)[C@@H](C)CC)C(C)C)NC(=O)[C@H](C)NC(=O)[C@H](CO)NC(=O)[C@H](CC(C)C)NC(=O)[C@H](CCCNC(=N)N)NC(=O)[C@@H](NC(=O)[C@H](CCCNC(=N)N)NC(=O)[C@@H](NC(=O)[C@H](CCCCN)NC(=O)[C@@H](N)CCCCN)[C@@H](C)CC)C(C)C)C(=O)NCCC(=O)O)C(C)C [SET-M33] (I: H-KKIRVRLSAKK[βAla]-OH / II: H-KKIRVRLSAK / III: H-KKIRVRLSA / IV: H-KKIRVRLSA; amide I:10-IV:C, I:11-II:C, II:10-III:C (inferred); N-terminus and C-terminus assumed)
Male rats; male rats, 5, 9 and 15 mg/kg single iv, 5, 30, 90, 240 min and 24 h post-dose
  adverse clinical signs (Irwin test): did not cause any adverse clinical signs
Male rats; male rats, 5, 9 and 15 mg/kg single iv, up to day 7
  delayed toxicity and mortality: No delayed effects of toxicity and no mortality
Male rats; male rats, 9 and 15 mg/kg single iv, 5 min post-dose
  group mean body temperature lower than vehicle-treated control group: 0.4–0.6 °C
Beagle dogs; dogs, 4.0 and 8.0 mg/kg/day 30-min iv infusion, 7 days
  survival: All animals survived the scheduled period
Beagle dogs; one dog, 8 mg/kg/day 30-min iv infusion, end of 7-day treatment
  loss of body weight with respect to day 1: 9.4%
mouse
  efficacy dose: 5 mg/kg
Sprague Dawley rats; female rats, 10 and 20 mg/kg/day iv, 7 days (Phase II)
  female body weight: unaffected by treatment
Sprague Dawley rats; rats, Phase I 20 mg/kg/day 3 days and Phase II 10 and 20 mg/kg/day 7 days, iv bolus
  survival: All animals survived both phases
